Source: PMC12316308, “Interactions of substrates and phosphinyl containing inhibitors with bacterial and human zinc proteases” (PLOS One, 2025)
Values joined by “and” are separate entries in the source; they are usually repeats but may differ in a detail not shown here. Equal entries are not always repeated. Where two headings read alike, the source gives them in different places.

What was measured:
Test in all cases: Enzyme inhibition kinetics, fluorogenic substrate ES001
Format in all cases: biochemical
[1] = target: T1, human MT1-MMP/MMP-14 (catalytic domain) (Homo sapiens, UniProt P50281); conditions: for remaining activity at 0.01 µM: log [H1] (M) -8; for remaining activity at 0.0001 µM: log [H1] (M) -10
T1 construct: human MT1-MMP/MMP-14 (catalytic domain); purchased Calbiochem (San Diego, CA, USA)

[2] = target: T2, APMA activated MMP-9 (MMP-9(A)) (Homo sapiens, UniProt P14780); conditions: for Vi/V0 AVG: APMA activated MMP-9, average
T2 construct: made in house; host or cells: Sf9 and High Five insect cells
T2 sequence (P14780 107-707 limits assumed): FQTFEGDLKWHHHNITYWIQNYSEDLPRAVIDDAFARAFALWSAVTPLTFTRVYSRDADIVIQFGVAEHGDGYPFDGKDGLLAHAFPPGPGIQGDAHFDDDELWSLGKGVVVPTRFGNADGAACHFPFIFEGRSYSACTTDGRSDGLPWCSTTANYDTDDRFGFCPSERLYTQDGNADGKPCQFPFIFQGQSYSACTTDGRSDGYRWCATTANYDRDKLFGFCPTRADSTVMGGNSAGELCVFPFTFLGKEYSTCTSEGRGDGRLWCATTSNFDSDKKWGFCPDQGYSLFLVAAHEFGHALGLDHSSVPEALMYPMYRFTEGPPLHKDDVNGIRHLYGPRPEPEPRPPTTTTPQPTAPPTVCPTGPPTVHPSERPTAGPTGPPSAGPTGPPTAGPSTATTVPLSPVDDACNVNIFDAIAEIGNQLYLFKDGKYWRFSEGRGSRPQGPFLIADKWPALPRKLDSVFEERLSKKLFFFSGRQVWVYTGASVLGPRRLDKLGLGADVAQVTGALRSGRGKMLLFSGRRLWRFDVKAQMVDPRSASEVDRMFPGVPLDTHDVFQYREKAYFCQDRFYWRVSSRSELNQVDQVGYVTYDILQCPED
Summary of the method: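 Recombinant full-length proMMP-9 expressed in insect cells was auto-activated with APMA and titrated with galardin. Activity at 0.05 nM enzyme was measured using 4.0 µM fluorogenic substrate ES001 in 100 µL 0.1 M Hepes pH 7.5 containing 10 mM CaCl2, 0.005% Brij-35 and 1.0% DMSO. Initial rates were followed at 37°C (excitation 320 nm, emission 405 nm) relative to inhibitor-free controls.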

[3] = target: T3, Mag-Trypsin activated MMP-9 (MMP-9(MT)) (Homo sapiens, UniProt P14780); conditions: for remaining activity at 100 µM: 100 µM inhibitor; for Vi/V0 avg: Trypsin activated MMP-9, average
T3 construct: made in house; host or cells: Sf9 and High Five insect cells
T3 sequence (P14780 107-707 limits assumed): as above

[4] = MMP-14, log [H1] (M) -4, replicates
[5] = read-out: vi/v0 before correction of curve, MMP-14, replicates
[6] = read-out: vi/v0 corrected (v0 is the average of log -10 to log -7), MMP-14, replicates

Work on `NC(=O)C(CCC(=O)O)NC(=O)C(CCC(=O)O)NC(=O)C(Cc1cc(-c2ccc(-c3cccc(Cl)c3)cc2)no1)CP(=O)(O)c1ccc(Br)cc1` (stereo not drawn) [H-1] yielded a Ki [1] of 0.89 ± 0.04 µM, a remaining activity at 100 µM ([1]; 0.25 h, read-out: vi/v0 (single replicate), MMP-14, 100 µM inhibitor, 15 min pre incubation) of 3.03% and a remaining activity at 100 µM ([1]; 0.25 h, read-out: vi/v0 avg, MMP-14, 100 µM inhibitor, 15 min pre incubation) of 2.86%. For the same molecule, the remaining activity at 100 µM ([1]; 0.5 h, read-out: vi/v0 (single replicate), MMP-14, 100 µM inhibitor, 30 min pre incubation) was 4.56%, the remaining activity at 100 µM ([1]; 0.5 h, read-out: vi/v0 avg, MMP-14, 100 µM inhibitor, 30 min pre incubation) was 3.15% and the “inhibitory effect on enzymatic activity” value ([1]; MMP-14, 100 μM compound, in words) was “strong inhibition”. The “vi/v0 Av (bar diagram figure 7)” value ([1]; MMP-14, inhibitor 100 μM, average over preincubation times) was 0.03265, the “vi/v0 (relative enzyme activity with inhibitor), single determinations” value ([1]; MMP-14, inhibitor 100 μM, preincubation 0 min) was 0.02699 and 0.03692 and 0.04011 and 0.0422 and the “vi/v0 (relative enzyme activity with inhibitor), single determinations” value ([1]; MMP-14, inhibitor 100 μM, preincubation 15 min) was 0.03033 and 0.02659 and 0.02876. The “vi/v0 (relative enzyme activity with inhibitor), single determinations” value ([1]; MMP-14, inhibitor 100 μM, preincubation 30 min) was 0.04555 and 0.0252 and 0.02389, the “vi/v0 before correction of curve” value [1, 4] was 0 and the “vi/v0 corrected (v0 is the average of log -10 to log -7)” value [1, 4] was 0. It also gave a remaining activity at 100 µM ([1]; read-out: vi/v0 (single replicate), MMP-14, 100 µM inhibitor, no preincubation) of 2.7%, a remaining activity at 100 µM ([1]; read-out: vi/v0 avg, MMP-14, 100 µM inhibitor, no preincubation) of 3.66% and a remaining activity at 100 µM ([1]; read-out: vi/v0 before correction of curve, MMP-14, log [H1] (M) -4, replicates) of 0%. For the same molecule, the remaining activity at 0.01 µM [1, 5] was 90.7%, the remaining activity at 0.0001 µM [1, 5] was 94.8% and the remaining activity at 100 µM ([1]; read-out: vi/v0 corrected (v0 is the average of log -10 to log -7), MMP-14, log [H1] (M) -4, replicates) was 0%. For the same molecule, the remaining activity at 0.01 µM [1, 6] was 91.4%, the remaining activity at 0.0001 µM [1, 6] was 95.4% and the Ki [2] was 19 ± 3 µM. The remaining activity at 100 µM ([2]; 0.25 h, read-out: vi/v0 avg, rMMP-9 (APMA activated), 100 µM inhibitor, 15 min pre incubation) was 25.7%, the remaining activity at 100 µM ([2]; 0.5 h, read-out: vi/v0 avg, rMMP-9 (APMA activated), 100 µM inhibitor, 30 min pre incubation) was 25.3% and the “Vi/V0 AVG” value ([2]; [H1] 10 μM) was 0.7315. The “Vi/V0 AVG” value ([2]; [H1] 20 μM) was 0.5955, the “Vi/V0 AVG” value ([2]; [H1] 30 μM) was 0.5816 and the “Vi/V0 AVG” value ([2]; [H1] 40 μM) was 0.5052. For the same molecule, the “Vi/V0 AVG” value ([2]; [H1] 50 μM) was 0.4481, the “Vi/V0 AVG” value ([2]; [H1] 60 μM) was 0.4125 and the “Vi/V0 AVG” value ([2]; [H1] 70 μM) was 0.3558. The “Vi/V0 AVG” value ([2]; [H1] 80 μM) was 0.3478, the “Vi/V0 AVG” value ([2]; [H1] 90 μM) was 0.3201 and the “Vi/V0 AVG” value ([2]; [H1] 100 μM) was 0.265. The “inhibitory effect on enzymatic activity” value ([2]; MMP-9(A), 100 μM compound, in words) was “strong inhibition”, the “vi/v0 Av (bar diagram figure 7)” value ([2]; rMMP-9 (APMA activated), inhibitor 100 μM, average over 0, 15, 30 min preincubation) was 0.2424 and the “vi/v0 (relative enzyme activity with inhibitor), single determinations” value ([2]; rMMP-9 (APMA activated), inhibitor 100 μM, preincubation 0 min) was 0.1639 and 0.167 and 0.1831 and 0.1727 and 0.3076 and 0.251 and 0.276. It also gave a remaining activity at 20 µM ([2]; read-out: Vi/V0, APMA activated MMP-9, [H1] 20 μM, replicate vi over each of 4 controls) of 59.1%, a remaining activity at 40 µM ([2]; read-out: Vi/V0, APMA activated MMP-9, [H1] 40 μM, replicate vi over each of 4 controls) of 41.9% and a remaining activity at 50 µM ([2]; read-out: Vi/V0, APMA activated MMP-9, [H1] 50 μM, replicate vi over each of 4 controls) of 41.4%. It also gave a remaining activity at 60 µM ([2]; read-out: Vi/V0, APMA activated MMP-9, [H1] 60 μM, replicate vi over each of 4 controls) of 36.8%, a remaining activity at 70 µM ([2]; read-out: Vi/V0, APMA activated MMP-9, [H1] 70 μM, replicate vi over each of 4 controls) of 33.5% and a remaining activity at 80 µM ([2]; read-out: Vi/V0, APMA activated MMP-9, [H1] 80 μM, replicate vi over each of 4 controls) of 32.6%. It also gave a remaining activity at 90 µM ([2]; read-out: Vi/V0, APMA activated MMP-9, [H1] 90 μM, replicate vi over each of 4 controls) of 27.8%, a remaining activity at 100 µM ([2]; read-out: Vi/V0, APMA activated MMP-9, [H1] 100 μM, replicate vi over each of 4 controls) of 23.6% and a remaining activity at 100 µM ([2]; read-out: vi/v0 (single replicate), rMMP-9 (APMA activated), 100 µM inhibitor, no preincubation) of 16.4%. It also gave a remaining activity at 100 µM ([2]; read-out: vi/v0 avg, rMMP-9 (APMA activated), 100 µM inhibitor, no preincubation) of 21.7%, a Ki [3] of 30 ± 4 µM and a remaining activity at 100 µM ([3]; 0.25 h, read-out: vi/v0 (single replicate), rMMP-9 (Mag-trypsin activated), 15 min pre incubation) of 38.1%. For the same molecule, the remaining activity at 100 µM ([3]; 0.25 h, read-out: vi/v0 avg, rMMP-9 (Mag-trypsin activated), 15 min pre incubation) was 47.9%, the remaining activity at 100 µM ([3]; 0.5 h, read-out: vi/v0 (single replicate), rMMP-9 (Mag-trypsin activated), 30 min pre incubation) was 47.4% and the remaining activity at 100 µM ([3]; 0.5 h, read-out: vi/v0 avg, rMMP-9 (Mag-trypsin activated), 30 min pre incubation) was 47.5%. The “inhibitory effect on enzymatic activity” value ([3]; MMP-9(MT), 100 μM compound, in words) was “strong inhibition”, the Vi/V0 avg ([3]; [H1] 10 μM) was 0.823 and the Vi/V0 avg ([3]; [H1] 20 μM) was 0.766.
